# From patent US20100035868A1, “METHODS OF TREATMENT OF UTERINE PATHOLOGICAL CONDITIONS” (MEDICAL RESEARCH COUNCIL, priority 2001, published 2010)
# Where two headings read alike, the source gives them in different places.
# Experiments:
# [1] = target: T1, COX-2 (Homo sapiens, UniProt P35354); details: cited from earlier work
# T1 sequence (P35354 18-604): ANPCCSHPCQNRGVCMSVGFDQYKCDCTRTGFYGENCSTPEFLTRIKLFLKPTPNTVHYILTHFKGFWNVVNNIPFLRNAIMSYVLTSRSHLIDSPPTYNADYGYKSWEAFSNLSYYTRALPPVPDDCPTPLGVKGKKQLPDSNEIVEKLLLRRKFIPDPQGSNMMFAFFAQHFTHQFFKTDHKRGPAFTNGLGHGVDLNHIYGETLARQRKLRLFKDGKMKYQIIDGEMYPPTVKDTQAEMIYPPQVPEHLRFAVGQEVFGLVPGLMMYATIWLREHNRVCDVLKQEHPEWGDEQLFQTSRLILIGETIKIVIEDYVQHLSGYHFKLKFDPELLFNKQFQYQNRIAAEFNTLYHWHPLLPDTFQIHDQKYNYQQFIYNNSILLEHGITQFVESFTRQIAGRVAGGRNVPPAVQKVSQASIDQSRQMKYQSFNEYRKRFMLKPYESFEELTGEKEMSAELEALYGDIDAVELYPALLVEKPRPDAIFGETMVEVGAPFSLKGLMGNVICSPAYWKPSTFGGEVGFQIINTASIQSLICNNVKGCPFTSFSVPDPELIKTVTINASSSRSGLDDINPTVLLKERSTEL
# [2] = tested on: EP2/EP4 receptors; experiment: cAMP generation in cultured normal secretory phase endometrium after PGE2 stimulation; assay type: cell-based, human; details: normal secretory phase endometrium (n=6), 300 nM PGE2 for 5 min, IBMX 1 mM; treated/untreated
# Description: (§1) In vitro culture and cAMP measurement. Endometrial tumour tissue (n=6; two well, two moderately and two poorly differentiated adenocarcinomas) and normal secretory phase endometrium (n=6) were minced finely with scissors and incubated in 2 ml RPMI (Sigma) medium containing 10% fetal calf serum, 0.3 mg/ml L-glutamine, 100 IU penicillin, 100 μg streptomycin and 3 μg/ml indomethacin, for 1.5 hrs at 37C in humidified 5% CO2. Thereafter samples were incubated in the same medium containing IBMX (Sigma) to a final concentration of 1 mM for 30 min at 37C and then stimulated for 5 min with 300 nM PGE2. Control treatments received no PGE2. Tissue was harvested by centrifugation at 2000 g. The supernatant was discarded and the tissue homogenised in 0.1 M HCl. cAMP concentration was quantified by ELISA using a cAMP kit (Biomol; Affiniti, Exeter, UK) and normalised to protein concentration of the homogenate. Protein concentrations were determined using protein assay kits (Bio-Rad, Hemel Hempstead, UK). The data are presented as fold induction of cAMP following treatment with PGE2. Fold induction was calculated by dividing cAMP values for the PGE2-treated samples by the value for the untreated sample.
# [3] = tested on: EP2/EP4 receptors; experiment: cAMP generation in cultured endometrial adenocarcinoma tissue after PGE2 stimulation; assay type: cell-based, human; details: endometrial adenocarcinoma tissue (n=6), 300 nM PGE2 for 5 min, IBMX 1 mM; treated/untreated
# Description: as §1
structure (smiles),measurement,setting,value
CS(=O)(=O)Nc1cc2c(cc1Sc1ccc(F)cc1F)C(=O)CC2 [L 475 L337],more specific for COX-2 inhibition than for COX-1 inhibition,[1]; COX-2 versus COX-1,500 fold
"CS(=O)(=O)Nc1ccc([N+](=O)[O-])cc1Oc1ccccc1 [Nimesulide, N-(4-nitro-2-phenoxyphenyl)methane sulfonamide]",more specific for COX-2 inhibition than for COX-1 inhibition,[1],100 fold
"CCCCC[C@H](O)/C=C/[C@H]1[C@H](O)CC(=O)[C@@H]1C/C=C\CCCC(=O)O [PGE2, prostaglandin E2]",fold induction of cAMP generation in response to PGE2,[2],1.15±0.05
same,fold induction of cAMP generation in response to PGE2,[3],3.42±0.46
